Source: patent US20210353767A1, “COMPOSITIONS AND METHODS FOR DRUG DELIVERY” (NORTH CAROLINA STATE UNIVERSITY, priority 2018, published 2021)
Values joined by “and” are separate entries in the source; they are usually repeats but may differ in a detail not shown here. Equal entries are not always repeated. Where two headings read alike, the source gives them in different places.

Key:
[1] = CD1 mice, one month after intradermal injection of 50 μL
Protocol: H&E slides of mouse skin and tissues from 8 mice were analyzed to determine local or distal effects of an injected depot material. All tissues were evaluated by light microscopy and were graded as: “-”=no changes observed in this tissue for any mouse; “0”=a particular change not present; “1”=change is present at slight/minimal severity; “2”=mild severity, “3”=moderate severity; “4” marked severity; “5”=severe. A grade of 1 represents the minimal detectable change and a 5 represents a change judged to be essentially as severe as possible.

[2] = test system: KPC 4662 pancreatic tumor; details: average of 4 mice
Protocol: Allograft Pancreatic Tumor. KPC 4662 pancreatic tumor cells (5e5) were injected in a 1:1 ratio with PBS:Matrigel(Matrigel Matrix 354234, lot 7205011) into the subcutaneous dorsal flanks of CD57B16 mice.
IVIS imaging (Camera #11219, DW434) was performed right before 100 ul of 50 mg/ml DBCO-cy7 retro orbital injections and imaged 24 hours afterwards when most of the unbound DBCO-cy was cleared from systemic circulation. For the refill dose experiments 9-week-old albino c57b16's from Envigo were used. For all other tumor refills, 9-week-old regular c57s from Envigo were used.

KPC 4662 tumors = details: pancreatic tumor after a dose of DBCO-cy7
Protocol: 8 mice were similarly injected with KPC 4662 tumors and allowed to grow over a week until injection of sNHS(N=4) or PBS(N=4). Injection and imaging was performed as described above on the IVIS before and 24 hours after DBCO-cy7 IV injection. Tumors were then explanted imaged to compare to a linear regression alginate gels ROI's that contained the same dose injected IV to obtain a percentage of cy7 captured at the tumor site.
The study employed three tumors injected with a “Click Target” and one control.

[3] = Brain refills: capture of i.v. DBCO-Cy7 at intracranial azide-sNHS depot; type: in vivo; details: azide-sNHS vs control mice, 24 hours after i.v. administration
Protocol: Representative images of azide-sNHS and control mice after 24 hours after i.v. administration of DBCO-Cy7. The brain was removed and imaged alone.
Quantitation of intracranial ROI radiant efficiency was measured 24 hours after i.v. DBCO-Cy7 administration. Samples show mean+/−SEM. *=p<0.05, **=p<0.01 by Student's T-test.
Brain Refills. For anesthesia, 1-5% isoflurane was administered before procedures as well as continuously through the stereotaxic setup, and 0.5% lidocaine HCL administered subcutaneous under the incision site prior to surgery. 10-week-old CD1 mice were mounted on a kopf stereotaxic head stage using ear bars and a 5 μl Hamilton syringe placed in needle fixture. For surgery, the area to be incised on the head was shaved and washed with 70% alcohol. An incision with a #10 blade was made from posterior to anterior (start of skull to between eyes) and skin pulled away from incision using sterile Q-tips to expose the skull. The syringe needle was adjusted so the tip was at Bregma, position of the stereotaxic device recorded, and then moved to the desired calculated position where a marking will be made with a surgical marker. The experimental coordinates were −2.5M/L, −1A/P, −3D/V. A small hand drill was then used to make a 1-2 mm size hole in the skull for the injection needle. […] Once complete, the mouse skin was joined by VetBond skin glue and monitored post-surgery. […]

[4] = Intradermal tetrazine-sNHS depot, IVIS imaging of TCO-cy5 capture; type: in vivo, mice; details: for Average Radiant Efficiency: average of 4 mice; for Total Radiant Efficiency Measured within Regions of Interest (ROI): before-injection value subtracted, individual mouse
Protocol: 50 μL of 0.05M methyl tetrazine-sNHS ester was dissolved in sterile PBS, and injected intradermally into the dorsal flanks of mice CD1 Charles river mice. The first four images in FIG. 8 are pictures of the four mice treated with the “Click-Target” (tetrazine-sNHS) and the four control mice injected with PBS. The last 4 images in FIG. 8 show the fluorescence observed 24 hours after injection of the “Click Prodrug” (TCO-cy5). The IVIS was adjusted for this cy5 fluorophore. […] This experiment was also performed at 1 week with similar results
The total increase in fluorescence after the TCO-cy5 injection (at 1 day) over the intradermal injection ROI's (total radiant efficiency measurement) subtracting the before tco-cy5 image injection value are included below.
The total increase in fluorescence after the TCO-cy5 injection (at 1 week) over the intradermal injection ROI's (total radiant efficiency measurement) subtracting the before tco-cy5 image injection value are included below.

**Q.** With `[N-]=[N+]=NCCC(=O)ON1C(=O)CC(S(=O)(=O)O)C1=O` (stereo not shown) [Azide sNHS, 3-Azidopropionic Acid Sulfo-NHS ester] as the compound, how does the “histologic changes (H&E) versus PBS group” value [1] read?
**A.** no difference between the two groups

**Q.** What about the “Average Radiant Efficiency” value ([2]; 24 hours after first administration of DBCO-cy7) of the same compound?
**A.** 9.21 × 10^9

**Q.** And the “Average Radiant Efficiency” value ([2]; 24 hours after second administration of DBCO-cy7)?
**A.** 7.26 × 10^9

**Q.** What about the “Average Radiant Efficiency” value ([2]; 24 hours after third administration of DBCO-cy7) of the same compound?
**A.** 4.12 × 10^9

**Q.** What about the “radiance relative to control (ROI measurements)” value (KPC 4662 tumors) of the same compound?
**A.** four times greater

**Q.** Which “capture in the brain” value [3] does the source give for `C[N+]1=C(C=CC2=CC(=CC=C3N(CCCCCC(=O)NCCCCCC(=O)N4Cc5ccccc5C#Cc5ccccc54)c4ccccc4C3(C)C)CCC2)C(C)(C)c2ccccc21.F[P-](F)(F)(F)(F)F` [DBCO-Cy7, Cyanine7 DBCO] here?
**A.** click-specific capture

**Q.** With methyl tetrazine-sNHS ester as the compound, how does the “Average Radiant Efficiency” value ([4]; TCO-cy5 injection at 1 week) read?
**A.** 1.25 × 10^9

**Q.** What about the “Average Radiant Efficiency” value ([4]; TCO-cy5 injection at 1 day) of the same compound?
**A.** 2.72 × 10^9

**Q.** What about the “Total Radiant Efficiency Measured within Regions of Interest (ROI)” value ([4]; increase in fluorescence after TCO-cy5 injection at 1 week) of the same compound?
**A.** 1.12 × 10^9 and 1.57 × 10^9 and 1.31 × 10^9 and 1.01 × 10^9

**Q.** And the “Total Radiant Efficiency Measured within Regions of Interest (ROI)” value ([4]; increase in fluorescence after TCO-cy5 injection at 1 day)?
**A.** 3.64 × 10^9 and 2.40 × 10^9 and 1.92 × 10^9 and 2.90 × 10^9
